Reference: patent US8410302B2, “Methoxyimino compounds and fungicide composition comprising same” (Kyung Nong Corporation, priority 2007, dated 2013)

How the values were obtained:
Rhizoctonia solani AG-1 = test: Fungicidal activity against rice sheath blight (RSB) disease, control value; conditions: for pest or weed control at 100 ppm / pest or weed control at 2 ppm / pest or weed control at 10 ppm / pest or weed control at 50 ppm: Rhizoctonia solani, AG1, in Oryza sativa, read-out: RSB control value (C.V.)
Botrytis cinerae = test: Fungicidal activity against cucumber gray mold rot (CGM) disease, control value; assay type: in vivo; conditions: for pest or weed control at 100 ppm: Botrytis, cucumber gray mold rot, read-out: CGM control value (C.V.)
Protocol: Botrytis cinerae, which was isolated from cucumber infected thereby, was inoculated on a potato agar medium (PEC) and cultured under a 12L/12D cycle at 25° C. for 15 days to form spore. The spores were scraped, filtered through a gauze and then suspended in Potato Dextrose broth at a concentration of 1×10^6 spore/ml. The spore suspension was sprayed on a cucumber plant having one leaf. The cucumber plant was held in a humidified room at 20° C. for 3 days. L.A. on a leaf was measured to calculate a C.V.

[1] = test system: Pyricularia oryzae Carvara KA301; test: whole plant or invertebrate; assay type: in vivo; conditions: for pest or weed control at 2 ppm / pest or weed control at 10 ppm / pest or weed control at 50 ppm / pest or weed control at 100 ppm: Pyricularia oryzae, read-out: RCB control value (C.V.)
Phytophthora infestans = test: whole plant or invertebrate; assay type: in vivo; conditions: for pest or weed control at 2 ppm / pest or weed control at 10 ppm / pest or weed control at 50 ppm / pest or weed control at 100 ppm: Phytophthora infestans, in Solanum lycopersicum, read-out: TLB control value (C.V.)
Erysiphae graminis = test: Fungicidal activity against barley powdery mildew (BPM) disease, control value; assay type: in vivo; conditions: for pest or weed control at 2 ppm / pest or weed control at 10 ppm / pest or weed control at 50 ppm / pest or weed control at 100 ppm: Hordeum vulgare, 168 h, barley powdery mildew, read-out: BPM control value (C.V.)
Puccinia recondita = test: Fungicidal activity against wheat leaf rust (WLR) disease, control value; assay type: in vivo; conditions: for pest or weed control at 2 ppm / pest or weed control at 10 ppm / pest or weed control at 50 ppm / pest or weed control at 100 ppm: wheat leaf rust, read-out: WLR control value (C.V.)

## CO/C=C(/C(=O)OC)c1ccccc1Oc1cc(Oc2ccccc2C#N)ncn1 [Azoxystrobin, reference compound]
Rhizoctonia solani AG-1; 0.4 ppm
  RSB control value (C.V.): 67%
Rhizoctonia solani AG-1; 2 ppm
  RSB control value (C.V.): 98%
Rhizoctonia solani AG-1; 10 ppm
  RSB control value (C.V.): 100%
Rhizoctonia solani AG-1; 50 ppm
  RSB control value (C.V.): 100%
Botrytis cinerae; 50 ppm
  CGM control value (C.V.): 40%
[1]; 0.4 ppm
  RCB control value (C.V.): 30%
[1]; 2 ppm
  RCB control value (C.V.): 90%
[1]; 10 ppm
  RCB control value (C.V.): 100%
[1]; 50 ppm
  RCB control value (C.V.): 100%
Phytophthora infestans; 0.4 ppm
  TLB control value (C.V.): 50%
Phytophthora infestans; 2 ppm
  TLB control value (C.V.): 90%
Phytophthora infestans; 10 ppm
  TLB control value (C.V.): 98%
Phytophthora infestans; 50 ppm
  TLB control value (C.V.): 100%
Erysiphae graminis; 0.4 ppm
  BPM control value (C.V.): 95%
Erysiphae graminis; 2 ppm
  BPM control value (C.V.): 100%
Erysiphae graminis; 10 ppm
  BPM control value (C.V.): 100%
Erysiphae graminis; 50 ppm
  BPM control value (C.V.): 100%
Puccinia recondita; 0.4 ppm
  WLR control value (C.V.): 95%
Puccinia recondita; 2 ppm
  WLR control value (C.V.): 100%
Puccinia recondita; 10 ppm
  WLR control value (C.V.): 100%
Puccinia recondita; 50 ppm
  WLR control value (C.V.): 100%

## CO/N=C(/C(=O)OC)c1ccccc1COc1cccc(C=C(Cl)Cl)c1 [Example 1, methyl-(E)-2-(2-((3-(2,2-dichlorovinyl)phenoxy)methyl)phenyl)-2-methoxyiminoacetate]
Rhizoctonia solani AG-1
  pest or weed control at 100 ppm: 45%
Botrytis cinerae
  pest or weed control at 100 ppm: 29%
[1]
  pest or weed control at 2 ppm: 13%
  pest or weed control at 10 ppm: 50%
  pest or weed control at 50 ppm: 92%
  pest or weed control at 100 ppm: 100%
Phytophthora infestans
  pest or weed control at 2 ppm: 80%
  pest or weed control at 10 ppm: 92%
  pest or weed control at 50 ppm: 100%
  pest or weed control at 100 ppm: 100%
Erysiphae graminis; 2 ppm
  pest or weed control at 2 ppm: 100%
Erysiphae graminis; 10 ppm
  pest or weed control at 10 ppm: 100%
Erysiphae graminis; 50 ppm
  pest or weed control at 50 ppm: 100%
Erysiphae graminis
  pest or weed control at 100 ppm: 100%
Puccinia recondita; 2 ppm
  pest or weed control at 2 ppm: 98%
Puccinia recondita; 10 ppm
  pest or weed control at 10 ppm: 100%
Puccinia recondita; 50 ppm
  pest or weed control at 50 ppm: 100%
Puccinia recondita
  pest or weed control at 100 ppm: 100%

## CNC(=O)/C(=N/OC)c1ccccc1COc1cccc(C=C(Cl)Cl)c1 [Example 2, (E)-2-(2-((3-(2,2-dichlorovinyl)phenoxy)methyl)phenyl)-2-methoxyimino-N-methylacetamide]
Rhizoctonia solani AG-1
  pest or weed control at 100 ppm: 32%
Botrytis cinerae
  pest or weed control at 100 ppm: 34%
[1]
  pest or weed control at 2 ppm: 90%
  pest or weed control at 10 ppm: 97%
  pest or weed control at 50 ppm: 100%
  pest or weed control at 100 ppm: 100%
Phytophthora infestans
  pest or weed control at 2 ppm: 98%
  pest or weed control at 10 ppm: 100%
  pest or weed control at 50 ppm: 100%
  pest or weed control at 100 ppm: 100%
Erysiphae graminis; 2 ppm
  pest or weed control at 2 ppm: 100%
Erysiphae graminis; 10 ppm
  pest or weed control at 10 ppm: 100%
Erysiphae graminis; 50 ppm
  pest or weed control at 50 ppm: 100%
Erysiphae graminis
  pest or weed control at 100 ppm: 100%
Puccinia recondita; 2 ppm
  pest or weed control at 2 ppm: 30%
Puccinia recondita; 10 ppm
  pest or weed control at 10 ppm: 90%
Puccinia recondita; 50 ppm
  pest or weed control at 50 ppm: 98%
Puccinia recondita
  pest or weed control at 100 ppm: 100%

## CO/N=C(/C(=O)OC)c1ccccc1COc1ccc(C=C(Cl)Cl)cc1 [Example 3, methyl-(E)-2-(2-((4-(2,2-dichlorovinyl)phenoxy)methyl)phenyl)-2-methoxyiminoacetate]
Rhizoctonia solani AG-1
  pest or weed control at 100 ppm: 60%
Botrytis cinerae
  pest or weed control at 100 ppm: 50%
[1]
  pest or weed control at 2 ppm: 30%
  pest or weed control at 10 ppm: 90%
  pest or weed control at 50 ppm: 100%
  pest or weed control at 100 ppm: 100%
Phytophthora infestans
  pest or weed control at 2 ppm: 0%
  pest or weed control at 10 ppm: 35%
  pest or weed control at 50 ppm: 95%
  pest or weed control at 100 ppm: 98%
Erysiphae graminis; 2 ppm
  pest or weed control at 2 ppm: 20%
Erysiphae graminis; 10 ppm
  pest or weed control at 10 ppm: 50%
Erysiphae graminis; 50 ppm
  pest or weed control at 50 ppm: 95%
Erysiphae graminis
  pest or weed control at 100 ppm: 95%
Puccinia recondita; 2 ppm
  pest or weed control at 2 ppm: 40%
Puccinia recondita; 10 ppm
  pest or weed control at 10 ppm: 90%
Puccinia recondita; 50 ppm
  pest or weed control at 50 ppm: 100%
Puccinia recondita
  pest or weed control at 100 ppm: 100%

## CNC(=O)/C(=N/OC)c1ccccc1COc1ccc(C=C(Cl)Cl)cc1 [Example 4, (E)-2-(2-((4-(2,2-dichlorovinyl)phenoxy)methyl)phenyl)-2-methoxyimino-N-methylacetamide]
Rhizoctonia solani AG-1
  pest or weed control at 2 ppm: 90%
  pest or weed control at 10 ppm: 98%
  pest or weed control at 50 ppm: 100%
  pest or weed control at 100 ppm: 100%
Botrytis cinerae
  pest or weed control at 100 ppm: 75%
[1]
  pest or weed control at 2 ppm: 100%
  pest or weed control at 10 ppm: 100%
  pest or weed control at 50 ppm: 100%
  pest or weed control at 100 ppm: 100%
Phytophthora infestans
  pest or weed control at 2 ppm: 100%
  pest or weed control at 10 ppm: 100%
  pest or weed control at 50 ppm: 100%
  pest or weed control at 100 ppm: 100%
Erysiphae graminis; 2 ppm
  pest or weed control at 2 ppm: 100%
Erysiphae graminis; 10 ppm
  pest or weed control at 10 ppm: 100%
Erysiphae graminis; 50 ppm
  pest or weed control at 50 ppm: 100%
Erysiphae graminis
  pest or weed control at 100 ppm: 100%
Puccinia recondita; 2 ppm
  pest or weed control at 2 ppm: 100%
Puccinia recondita; 10 ppm
  pest or weed control at 10 ppm: 100%
Puccinia recondita; 50 ppm
  pest or weed control at 50 ppm: 100%
Puccinia recondita
  pest or weed control at 100 ppm: 100%

## CO/N=C(/C(=O)OC)c1ccccc1COc1cccc(C=C(Br)Br)c1 [Example 5, methyl-(E)-2-(2-((3-(2,2-dibromovinyl)phenoxy)methyl)phenyl)-2-methoxyiminoacetate]
Rhizoctonia solani AG-1
  pest or weed control at 100 ppm: 32%
Botrytis cinerae
  pest or weed control at 100 ppm: 34%
[1]
  pest or weed control at 2 ppm: 90%
  pest or weed control at 10 ppm: 97%
  pest or weed control at 50 ppm: 100%
  pest or weed control at 100 ppm: 100%
Phytophthora infestans
  pest or weed control at 50 ppm: 55%
  pest or weed control at 100 ppm: 93%
Erysiphae graminis
  pest or weed control at 100 ppm: 87%
Puccinia recondita
  pest or weed control at 100 ppm: 92%

## CNC(=O)/C(=N/OC)c1ccccc1COc1cccc(C=C(Br)Br)c1 [Example 6, (E)-2-(2-((3-(2,2-dibromovinyl)phenoxy)methyl)phenyl)-2-methoxyimino-N-methylacetamide]
Rhizoctonia solani AG-1
  pest or weed control at 2 ppm: 30%
  pest or weed control at 10 ppm: 90%
  pest or weed control at 50 ppm: 100%
  pest or weed control at 100 ppm: 100%
Botrytis cinerae
  pest or weed control at 100 ppm: 60%
[1]
  pest or weed control at 2 ppm: 98%
  pest or weed control at 10 ppm: 100%
  pest or weed control at 50 ppm: 100%
  pest or weed control at 100 ppm: 100%
Phytophthora infestans
  pest or weed control at 100 ppm: 50%
Erysiphae graminis; 2 ppm
  pest or weed control at 2 ppm: 0%
Erysiphae graminis; 10 ppm
  pest or weed control at 10 ppm: 30%
Erysiphae graminis; 50 ppm
  pest or weed control at 50 ppm: 90%
Erysiphae graminis
  pest or weed control at 100 ppm: 97%
Puccinia recondita; 2 ppm
  pest or weed control at 2 ppm: 0%
Puccinia recondita; 10 ppm
  pest or weed control at 10 ppm: 35%
Puccinia recondita; 50 ppm
  pest or weed control at 50 ppm: 95%
Puccinia recondita
  pest or weed control at 100 ppm: 98%

## CO/N=C(/C(=O)OC)c1ccccc1COc1ccc(C=C(Br)Br)cc1 [Example 7, methyl-(E)-2-(2-((4-(2,2-dibromovinyl)phenoxy)methyl)phenyl)-2-methoxyiminoacetate]
Rhizoctonia solani AG-1
  pest or weed control at 2 ppm: 98%
  pest or weed control at 10 ppm: 100%
  pest or weed control at 50 ppm: 100%
  pest or weed control at 100 ppm: 100%
Botrytis cinerae
  pest or weed control at 100 ppm: 35%
[1]
  pest or weed control at 2 ppm: 100%
  pest or weed control at 10 ppm: 100%
  pest or weed control at 50 ppm: 100%
  pest or weed control at 100 ppm: 100%
Phytophthora infestans
  pest or weed control at 2 ppm: 100%
  pest or weed control at 10 ppm: 100%
  pest or weed control at 50 ppm: 100%
  pest or weed control at 100 ppm: 100%
Erysiphae graminis; 2 ppm
  pest or weed control at 2 ppm: 100%
Erysiphae graminis; 10 ppm
  pest or weed control at 10 ppm: 100%
Erysiphae graminis; 50 ppm
  pest or weed control at 50 ppm: 100%
Erysiphae graminis
  pest or weed control at 100 ppm: 100%
Puccinia recondita; 2 ppm
  pest or weed control at 2 ppm: 100%
Puccinia recondita; 10 ppm
  pest or weed control at 10 ppm: 100%
Puccinia recondita; 50 ppm
  pest or weed control at 50 ppm: 100%
Puccinia recondita
  pest or weed control at 100 ppm: 100%

## CNC(=O)/C(=N/OC)c1ccccc1COc1ccc(C=C(Br)Br)cc1 [Example 8, (E)-2-(2-((4-(2,2-dibromovinyl)phenoxy)methyl)phenyl)-2-methoxyimino-N-methylacetamide]
Rhizoctonia solani AG-1
  pest or weed control at 100 ppm: 32%
Botrytis cinerae
  pest or weed control at 100 ppm: 7%
[1]
  pest or weed control at 2 ppm: 90%
  pest or weed control at 10 ppm: 97%
  pest or weed control at 50 ppm: 100%
  pest or weed control at 100 ppm: 100%
Phytophthora infestans
  pest or weed control at 2 ppm: 98%
  pest or weed control at 10 ppm: 100%
  pest or weed control at 50 ppm: 100%
  pest or weed control at 100 ppm: 100%
Erysiphae graminis; 2 ppm
  pest or weed control at 2 ppm: 99%
Erysiphae graminis; 10 ppm
  pest or weed control at 10 ppm: 100%
Erysiphae graminis; 50 ppm
  pest or weed control at 50 ppm: 100%
Erysiphae graminis
  pest or weed control at 100 ppm: 100%
Puccinia recondita; 2 ppm
  pest or weed control at 2 ppm: 90%
Puccinia recondita; 10 ppm
  pest or weed control at 10 ppm: 90%
Puccinia recondita; 50 ppm
  pest or weed control at 50 ppm: 98%
Puccinia recondita
  pest or weed control at 100 ppm: 100%

## CO/N=C(/C(=O)OC)c1ccccc1COc1ccc(C=C(F)F)cc1 [Example 9, methyl-(E)-2-(2-((4-(2,2-difluorovinyl)phenoxy)methyl)phenyl)-2-methoxyiminoacetate]
Rhizoctonia solani AG-1
  pest or weed control at 100 ppm: 10%
Botrytis cinerae
  pest or weed control at 100 ppm: 50%
[1]
  pest or weed control at 2 ppm: 100%
  pest or weed control at 10 ppm: 100%
  pest or weed control at 50 ppm: 100%
  pest or weed control at 100 ppm: 100%
Phytophthora infestans
  pest or weed control at 2 ppm: 100%
  pest or weed control at 10 ppm: 100%
  pest or weed control at 50 ppm: 100%
  pest or weed control at 100 ppm: 100%
Erysiphae graminis; 2 ppm
  pest or weed control at 2 ppm: 15%
Erysiphae graminis; 10 ppm
  pest or weed control at 10 ppm: 60%
Erysiphae graminis; 50 ppm
  pest or weed control at 50 ppm: 93%
Erysiphae graminis
  pest or weed control at 100 ppm: 100%
Puccinia recondita; 2 ppm
  pest or weed control at 2 ppm: 100%
Puccinia recondita; 10 ppm
  pest or weed control at 10 ppm: 100%
Puccinia recondita; 50 ppm
  pest or weed control at 50 ppm: 100%
Puccinia recondita
  pest or weed control at 100 ppm: 100%
